Measurements published in US9796719B2, “Compounds and pharmaceutical compositions thereof for the treatment of inflammatory disorders” (GALAPAGOS NV, priority 2013, dated 2017).
pIC50: −log10 of the molar value.

biological target: hENPP2 (UniProtKB/SwissProt Sequence ref Q13822) (Homo sapiens (Human), UniProt Q13822); assay: LPC hENPP2 assay (choline release, LPC as substrate); format: biochemical
Method: The principle of the assay consists in quantifying the released choline with an enzymatic method using choline oxidase and peroxidase. Choline oxydation by choline oxydase releases betaine and peroxide. The latter is quantified in presence of HRP that converts the peroxide detection agent TOOS and 4-aminoantipyrine into quinoneimine dye. The appearance of quinoneimine dye is measured spectrophotometrically at 555 nm and is proportional to the amount of choline released by ENPP2. Inhibition of ENPP2 will result in a decrease of the signal.
The reaction is terminated and choline quantified by the addition of a 25 μL of a mixture containing 0.6 U/mL of choline oxidase, 0.6 U/mL of peroxydase, 1.8 mM TOOS, 1.2 mM amino-antipyrine, 20 mM EGTA (stop-developer solution) diluted in the buffer described above. […] is read on the Envision after an incubation of 30 min at room temperature (Excitation 555 nm, excitation light=70%).

Structure (SMILES)	pIC50
CCc1nc2ccc(N3CCC(CO)C3)nn2c1N(C)c1nc(-c2ccc(F)cc2)c(C#N)s1 (stereo not drawn) [Cpd 173, 2-((2-ethyl-6-(3-(hydroxymethyl)pyrrolidin-1-yl)imidazo[1,2-b]pyridazin-3-yl)(methyl)amino)-4-(4-fluorophenyl) thiazole-5-carbonitrile]	6.30 to 7.00
CCc1nc2ccc(N3CCN(S(C)(=O)=O)[C@H](CO)C3)nn2c1N(C)c1nc(-c2ccc(F)cc2)c(C#N)s1 [Cpd 161, (S)-2-((2-ethyl-6-(3-(hydroxymethyl)-4-(methylsulfonyl)piperazin-1-yl)imidazo[1,2-b]pyridazin-3-yl)(methyl)amino)-4-(4-fluorophenyl) thiazole-5-carbonitrile]	6.30 to 7.00
CCc1nc2ccc(N3CCN(CC(=O)N4CCC4)CC3)nn2c1N(C)c1nc(-c2ccc(F)cc2)cs1 [Cpd 36, 1-(azetidin-1-yl)-2-(4-(2-ethyl-3-((4-(4-fluorophenyl)thiazol-2-yl)(methyl)amino)imidazo[1,2-b]pyridazin-6-yl)piperazin-1-yl)ethanone]	6.30 to 7.00
CCc1nc2ccc(N3CCCC(N4CCOCC4)C3)nn2c1N(C)c1nc(-c2ccc(F)cc2)cs1 (stereo not drawn) [Cpd 110, N-(2-ethyl-6-(3-morpholino-piperidin-1-yl)imidazo[1,2-b]pyridazin-3-yl)-4-(4-fluorophenyl)-N-methylthiazol-2-amine]	< 6.00
CCc1nc2ccc(N3CCC(C(=O)NCCO)C3)nn2c1N(C)c1nc(-c2ccc(F)cc2)cs1 (stereo not drawn) [Cpd 140, 1-(2-ethyl-3-((4-(4-fluorophenyl)thiazol-2-yl)(methyl)amino)imidazo[1,2-b]pyridazin-6-yl)-N-(2-hydroxyethyl) pyrrolidine-3-carboxamide]	< 6.00
CCc1nc2ccc(N3CCN(CC(=O)NCCO)CC3)nn2c1N(C)c1nc(-c2ccc(F)cc2)cs1 [Cpd 35, 2-(4-(2-ethyl-3-((4-(4-fluorophenyl)thiazol-2-yl)(methyl)amino)imidazo[1,2-b]pyridazin-6-yl)piperazin-1-yl)-N-(2-hydroxyethyl) acetamide]	< 6.00
CCc1nc2ccc(N3CCC4(CC(=O)NC4=O)C3)nn2c1N(C)c1nc(-c2ccc(F)cc2)cs1 (stereo not drawn) [Cpd 121, 7-(2-ethyl-3-((4-(4-fluorophenyl)thiazol-2-yl)(methyl)amino)imidazo[1,2-b]pyridazin-6-yl)-2,7-diazaspiro[4.4] nonane-1,3-dione]	< 6.00
CCc1nc2ccc(N3CCN(S(C)(=O)=O)[C@H](CO)C3)nn2c1N(C)c1nc(-c2ccc(F)cc2)c(CO)s1 [Cpd 68, (S)-(4-(2-ethyl-3-((4-(4-fluorophenyl)-5-(hydroxymethyl)thiazol-2-yl)(methyl)amino)imidazo[1,2-b]pyridazin-6-yl)-1-(methylsulfonyl)piperazin-2-yl)methanol]	6.30 to 7.00
CCc1nc2ccc(C3CCN(CC(=O)N(C)C)CC3)nn2c1N(C)c1nc(-c2ccc(F)cc2)c(CO)s1 [Cpd 203, 2-(4-(2-ethyl-3-((4-(4-fluorophenyl)-5-(hydroxymethyl)thiazol-2-yl)(methyl)amino)imidazo[1,2-b]pyridazin-6-yl)piperidin-1-yl)-N,N-dimethylacetamide]	6.00 to 6.30
CCc1nc2ccc(N3CCC(N4CCC(OC)CC4)C3)nn2c1N(C)c1nc(-c2ccc(F)cc2)c(C#N)s1 (stereo not drawn) [Cpd 183, 2-((2-ethyl-6-(3-(4-methoxypiperidin-1-yl)pyrrolidin-1-yl)imidazo[1,2-b]pyridazin-3-yl)(methyl)amino)-4-(4-fluorophenyl) thiazole-5-carbonitrilc]	7.00 to 11.00
CCc1nc2ccc(N3C[C@H]4C[C@H]3CN4S(C)(=O)=O)nn2c1N(C)c1nc(-c2ccc(F)cc2)cs1 [Cpd 76, N-(2-ethyl-6-((1S,4R)-5-(methylsulfonyl)-2,5-diazabicyclo[2.2.1]heptan-2-yl)imidazo[1,2-b]pyridazin-3-yl)-4-(4-fluorophenyl)-N-methylthiazol-2-amine]	< 6.00
CCc1nc2ccc(N3CC[C@H](NCC(=O)N(C)C)C3)nn2c1N(C)c1nc(-c2ccc(F)cc2)c(C#N)s1 [Cpd 175, (S)-2-(1-(3-((5-cyano-4-(4-fluorophenyl)thiazol-2-yl)(methyl)amino)-2-ethylimidazo[1,2-b]pyridazin-6-yl)pyrrolidin-3-ylamino)-N,N-dimethylacetamide]	7.00 to 11.00
CCc1nc2cnc(N3CCN(CC(=O)N4CC(F)(F)C4)CC3)cn2c1N(C)c1nc(-c2ccc(F)cc2)c(C#N)s1 [Cpd 3, 2-((6-(4-(2-(3,3-difluoroazetidin-1-yl)-2-oxoethyl)piperazin-1-yl)-2-ethylimidazo[1,2-a]pyrazin-3-yl)(methyl)amino)-4-(4-fluorophenyl) thiazole-5-carbonitrile]	< 6.00
CCc1nc2ccc(N3CCN(CC(=O)N4CCC(F)(F)C4)CC3)nn2c1N(C)c1nc(-c2ccc(F)cc2)cs1 [Cpd 31, 1-(3,3-difluoropyrrolidin-l-yl)-2-(4-(2-ethyl-3-((4-(4-fluorophenyl)thiazol-2-yl)(methyl)amino)imidazo[1,2-b]pyridazin-6-yl)piperazin-l-yl)ethanone]	6.30 to 7.00

Next, values leading:

pIC50	Structure (SMILES)
6.00 to 6.30	CCc1nc2ccc(N3CCN(CC(=O)NC)CC3)nn2c1N(C)c1nc(-c2ccc(F)cc2)cs1 [Cpd 30]
7.00 to 11.00	CCc1nc2ccc(N3CCC(O)(CNC(=O)OC)C3)nn2c1N(C)c1nc(-c2ccc(F)cc2)c(C#N)s1 (stereo not drawn) [Cpd 168, methyl (1-(3-((5-cyano-4-(4-fluorophenyl)thiazol-2-yl)(methyl)amino)-2-ethylimidazo[1,2-b]pyridazin-6-yl)-3-hydroxypyrrolidin-3-yl)]
7.00 to 11.00	CCc1nc2ccc(N3CC[C@H](NCC(=O)N4CC(O)C4)C3)nn2c1N(C)c1nc(-c2ccc(F)cc2)c(C#N)s1 [Cpd 174, (S)-2-((2-ethyl-6-(3-(2-(3-hydroxyazetidin-1-yl)-2-oxoethylamino)pyrrolidin-1-yl)imidazo[1,2-b]pyridazin-3-yl)(methyl)amino)-4-(4-fluorophenyl) thiazole-5-carbonitrile]
6.30 to 7.00	CCc1nc2ccc(C3CCN(CC(=O)NC)CC3)nn2c1N(C)c1nc(-c2ccc(F)cc2C#N)cs1 [Cpd 209, 2-(4-(3-((4-(2-cyano-4-fluorophenyl)thiazol-2-yl)(methyl)amino)-2-ethylimidazo[1,2-b]pyridazin-6-yl)piperidin-1-yl)-N-methylacetamide]
6.00 to 6.30	CCc1nc2ccc(N3CC(NS(C)(=O)=O)C3)nn2c1N(C)c1nc(-c2ccc(F)cc2)cs1 [Cpd 158, N-(1-(2-ethyl-3-((4-(4-fluorophenyl)thiazol-2-yl)(methyl)amino)imidazo[1,2-b]pyridazin-6-yl)azetidin-3-yl)methane-sulfonamide]
< 6.00	CCc1nc2ccc(N3CC[C@H](C#N)C3)nn2c1N(C)c1nc(-c2ccc(F)cc2)cs1 [Cpd 128, (S)-1-(2-ethyl-3-((4-(4-fluorophenyl)thiazol-2-yl)(methyl)amino)imidazo[1,2-b]pyridazin-6-yl)pyrrolidine-3-carbonitrile]
< 6.00	CCc1nc2ccc(N3CCN(S(C)(=O)=O)[C@@H](CO)C3)nn2c1N(C)c1nc(-c2ccc(F)cc2)cs1 [Cpd 69, (R)-(4-(2-ethyl-3-((4-(4-fluorophenyl)thiazol-2-yl)(methyl)amino)imidazo[1,2-b]pyridazin-6-yl)-1-(methylsulfonyl)piperazin-2-yl)methanol]
